Experiments:
[1] = test system: human norovirus GII. 4 strain or GII. 6 strain; assay: Effect of treatment with 2fp-fucose or 6a-fucose after differentiation, on infection and reinfection (RNA titer by real-time RT-PCR); assay type: cell-based; details: fucose analog 200 μM added on day 5, infection on day (5+2), 3 days culturing
Protocol: (a) The 2D organoid was disseminated to a 96-well plate. After completion of differentiation induction, two fucose analogs (i.e., 2fp-fucose and 6a-fucose) were each added on day 5 to a concentration of 200 μM, to thereby provide addition groups. The results are shown in FIG. 14(a) and FIG. 14(b), respectively. A non-addition group (untreated group) was also provided. Subsequently, the medium was removed from the wells on day (5+2), and the plate was washed. Then, infection with the GII. 4 strain or the GII. 6 strain was performed.
After the infection treatment, the human norovirus remaining in the medium was removed together with the medium, and the plate was washed thrice with a new medium. After washing, the aforementioned active ingredients were each added to the new medium to a concentration of 200 μM (addition groups), and no addition was performed with respect to the untreated (i.e., non-addition) group. Culturing was performed for 3 days. A portion (10 μL) of the medium was sampled from each well, and the samples were centrifuged at 10,000 g for 10 minutes, to thereby remove cell precipitates. The amount of human norovirus genomic RNA in the supernatant (1 μL) was determined through real-time RT-PCR.
In the test system, the effect of the anti-norovirus agent of the present invention provided after human norovirus infection was estimated on the basis of the following study. Specifically, among the fucose analog-treated 2D organoid cells, the living cells on growth day 3 (i.e., most of them were not infected with human norovirus, by virtue of the effect of the fucose analog) were subjected to a secondary infection operation (i.e., reinfection). The effect of the fucose analog on the reinfection was investigated.
In a specific procedure, the addition groups were prepared through the same procedure as employed in (a) above. The primarily infected cells were cultured in the presence of the fucose analog (200 μM) for 3 days, and the medium was removed from each culture system. After completion of washing, the cells were infected again with human norovirus, and then the virus was removed together with the medium. After completion of the next washing, a medium containing the fucose analog (200 μM) (represented by Reinf+2f-fuc or Reinf+6a-fuc), or a fucose analog-free medium (represented by Reinf−2f-fuc or Reinf−6a-fuc) was added thereto, and culturing was performed for further 3 days. Similar to the above case, the amount of human norovirus released to the supernatant was determined as an RNA titer. In the graphs, the two bars on the right side correspond to (Reinf+2f-fuc and Reinf+6a-fuc) or (Reinf−2f-fuc and Reinf−6a-fuc).

[2] = test system: 2D organoid; assay: Cytotoxicity of 6a-fucose to cultured 2D organoid (mono-layer sheet still alive); assay type: cell-based, human; details: 6a-fucose 1.6 to 200 μM, any of the tested concentrations
Protocol: (§1) To a medium containing the 2D organoid, 6a-fucose was added so as to adjust a final concentration of 0 μM, 1.6 μM, 8 μM, 40 μM, and 200 μM, and culturing for differentiation induction was performed for 4 days. The culturing was performed by means of a 96-well plate in which 3 wells were dedicated for each 6a-fucose addition system, and one test plate was used for one human norovirus tested. The human norovirus tested included the GII.4 strain and GII. 6 strain. The culturing was performed in a CO2 gas incubator controlled at 37° C.

[3] = test system: human norovirus GII. 6 strain; assay: Human norovirus proliferation inhibition test by use of 6a-fucose (real-time RT-PCR of genomic RNA), GII.6 strain; assay type: cell-based
Protocol: as §1
(§2) On day 4 of culturing, the medium was removed, and the plate was washed with a new medium. Subsequently, each human norovirus was added at 10^5 RNA copies to the plate for infection, and static culturing was performed for 3 hours. After completion of the infection treatment, human norovirus remaining in the medium was removed together with the medium, and the plate was washed thrice with a new medium.
(§3) After washing, 6a-fucose was added again to the new medium so as to adjust a final concentration to 0 μM, 1.6 μM, 8 μM, 40 μM, and 200 μM, and culturing was performed for 6 days.
(§4) A portion (10 μL) of the culture medium was collected from each well at three timings: (a) immediately after the addition to the new medium, (b) on day 3, and (c) on day 6. The sample was centrifuged at 10,000 g for 10 minutes, and the cell precipitate was removed. The human norovirus genomic RNA contained in the supernatant (1 μL) was quantitated through real-time RT-PCR.
(§5) In FIG. 13, the effects of use of 6a-fucose are shown with respect to (a) human norovirus GII. 4 strain and (b) human norovirus GII. 6 strain. The vertical axis in FIG. 13 represents the copy number of human norovirus genomic RNA (RNA titer), and the numeral under each bar graph represents the time of culturing from the start of the test.

[4] = test system: human norovirus GII. 4 strain; assay: Human norovirus proliferation inhibition test by use of 6a-fucose (real-time RT-PCR of genomic RNA), GII.4 strain; assay type: cell-based
Protocol: as §1, §2, §3, §4, §5

[5] = test system: human norovirus GII.4 (K2017 strain); assay: Human norovirus proliferation inhibition in 2D organoid after agent pre-treatment, GII.4 strain; assay type: cell-based; details: GII.4, 3 days treatment before infection
Protocol: Feces of a human norovirus-infected patent contains a large amount of infectious human norovirus. Thus, the feces of a human norovirus-infected patient is suspended in distilled water or the like to a final concentration of about 10%, to thereby prepare a “10% feces suspension.” The 10% feces suspension is about 10-fold diluted with an ENRA medium. The diluted suspension is added to each of the aforementioned wells having the 2D organoid (5 μL/well) and subjected to incubation for about 3 hours, to thereby proliferate human norovirus. As a result of verification, it has been confirmed that human norovirus proliferates to about 100,000 times the initial count through the culture system employing the 2D organoid.
In the Example, there were tested strains of human norovirus obtained from feces of human norovirus infection patients through the aforementioned procedure and stocked before the test. Specifically, three strains belonging to the genetic group 2 (GII) which accounts for 80 to 90% of the infected patients were selected as test targets. The isolated strain lineages included in GII (FIG. 1) were GII. 6 belonging to “Lineage 1,” GII. 3 belonging to “Lineage 2,” and GII.4 belonging to “Lineage 3” (GII. 6: K2017 strain, GII.3: TCH2004 strain, and GII. 4: K2017 strain).
The effect of 2fp-fucose treatment on proliferation of human norovirus was investigated for each lineage of norovirus. Specifically, after the 2fp-fucose treatment for 3 days, the 2D organoid was infected with each of the aforementioned norovirus strains GII.6, GII. 3, and GII. 4, and the viral proliferation amount was determined on days 3 and 6 after infection (FIG. 4).
Next, there was investigated the effect of the period of time (the number of days) of the 2fp-fucose treatment performed in advance on the anti-human norovirus action of the fucose analog. Specifically, the strain GII. 4 was treated with 2fp-fucose (several concentrations) for 1 to 4 days. […] However, in the group of 3-day treatment, the proliferation inhibition effect was observed by the 200 μM treatment with a certain range of variation in effectiveness. In the group of 4-day treatment, the proliferation inhibition effect was initially observed by 8 μM treatment, and the effect increased in a concentration-dependent manner to a 2fp-fucose concentration of 200 μM. […] Thus, the highest proliferation inhibition effect was obtained in the 2D organoid system through a 200 μM treatment for 3 to 4 days. The test was repeatedly performed three times. Error bars denote SEMs.
The 2D organoid was treated with an agent for 3 days. The tested agents were (a) 2fp-fucose (200 μM), (b) Sofosbuvir (1 μM), (c) Lamivudine (1 μM), (d) Ribavirin (400 μM), and (e) Mizoribine (100 μM). Subsequently, the thus-treated 2D organoid was infected with human norovirus (the norovirus strain GII.4), and the proliferation inhibition effect was determined (FIG. 6). The test was repeatedly performed three times. Error bars denote SEMs.

SMILES: C#C[C@@H]1OC(OC(C)=O)[C@@H](OC(C)=O)[C@H](OC(C)=O)[C@@H]1OC(C)=O (stereo partly drawn) [6a-fucose, 1,2,3,4-tetra-O-acetyl-6,7-dideoxy-L-galacto-hept-6-ynopyranose]
- rise in RNA titer (proliferation of human norovirus) in the addition group [1]: no rise in RNA titer
- rise in RNA titer of the untreated group with respect to the administration system [1]: ≥ 150 fold
- cytotoxicity to cultured cells (2D organoid) [2]: no cytotoxicity attributed to addition of 6a-fucose was observed
- proliferation inhibition effect ([3]; 6a-fucose 1.6 μM): not recognized
- human norovirus genome proliferation ([3]; 6a-fucose 8 μM, culture days 3 and 6): actively suppressed
- human norovirus genome proliferation ([3]; 6a-fucose 40 μM): completely inhibited
- rise in RNA titer relative to the titer at the start of culturing ([4]; 6a-fucose 8 μM): about 10 times
- rise in RNA titer ([4]; 6a-fucose 40 μM, day 6): no substantial increase in RNA titer was observed
- rise in RNA titer ([4]; 6a-fucose 200 μM): completely inhibited
- 6a-fucose concentration at which the proliferation inhibition effect emerged ([4]; 4 days pre-treatment, 6 days culturing after infection): 1.6 µM
- RNA titer relative to the titer at the start of culturing ([4]; each 6a-fucose treatment group (any concentration), culture day 6): ≤ 100 times

SMILES: NC(=O)c1ncn([C@@H]2O[C@H](CO)[C@@H](O)[C@H]2O)c1O [Mizoribine, reference compound]
- viral RNA titer from day 0 to day 7 (proliferation inhibition effect) ([5]; agent 100 μM): no effect of inhibiting proliferation of human norovirus

SMILES: NC(=O)c1ncn([C@@H]2O[C@H](CO)[C@@H](O)[C@H]2O)n1 [Ribavirin, reference compound]
- viral RNA titer from day 0 to day 7 (proliferation inhibition effect) ([5]; agent 400 μM): no effect of inhibiting proliferation of human norovirus

SMILES: CC(C)OC(=O)[C@H](C)N[P@](=O)(OC[C@H]1O[C@@H](n2ccc(=O)[nH]c2=O)[C@](C)(F)[C@@H]1O)Oc1ccccc1 [Sofosbuvir, reference compound]
- viral RNA titer from day 0 to day 7 (proliferation inhibition effect) ([5]; agent 1 μM): no effect of inhibiting proliferation of human norovirus

Reference: patent US20240390404A1, “ANTI-HUMAN NOROVIRUS AGENT” (KEIO UNIVERSITY, priority 2018, published 2024)
